Reference: patent US11083725B2 (priority 2014, dated 2021)

Tested on: NHBE cells
Assay: Biolog metabolic array: substrate use by NHBE cells with or without CA09 infection
Type: cell-based, human
Conditions: for Substrate use, 590 nm absorbance normalized to zero hour, 1 hr: Biolog PMM2, 1 hr; for Substrate use, 590 nm absorbance normalized to zero hour, 5 hr: Biolog PMM2, 5 hr; for Substrate use, 590 nm absorbance normalized to zero hour, 7 hr: Biolog PMM2, 7 hr
[1] = Control (uninfected) NHBE cells
[2] = Virus (CA09-infected, MOI 1) NHBE cells
[3] = Virus: CA09-infected NHBE cells, MOI 1, Biolog PMM2
[4] = Virus (CA09-infected NHBE cells, MOI 1)

Row | Structure (SMILES) | 590 nm absorbance normalized to zero hour (substrate use), 1 hr [1] | 590 nm absorbance normalized to zero hour (substrate use), 2 hr [1] | 590 nm absorbance normalized to zero hour (substrate use), 3 hr [1] | 590 nm absorbance normalized to zero hour (substrate use), 4 hr [1] | 590 nm absorbance normalized to zero hour (substrate use), 6 hr [1] | 590 nm absorbance normalized to zero hour (substrate use), 8 hr [1] | 590 nm absorbance normalized to zero hour (substrate use), 9 hr [1] | 590 nm absorbance normalized to zero hour (substrate use), 10 hr [1] | 590 nm absorbance normalized to zero hour (substrate use), 11 hr [1] | Substrate use, 590 nm absorbance normalized to zero hour, 1 hr [1] | Substrate use, 590 nm absorbance normalized to zero hour, 5 hr [1] | Substrate use, 590 nm absorbance normalized to zero hour, 7 hr [1] | 590 nm absorbance normalized to zero hour (substrate use), 1 hr [3] | 590 nm absorbance normalized to zero hour (substrate use), 2 hr [3] | 590 nm absorbance normalized to zero hour (substrate use), 3 hr [3] | 590 nm absorbance normalized to zero hour (substrate use), 4 hr [3] | 590 nm absorbance normalized to zero hour (substrate use), 5 hr [3] | 590 nm absorbance normalized to zero hour (substrate use), 6 hr [3] | 590 nm absorbance normalized to zero hour (substrate use), 7 hr [3] | 590 nm absorbance normalized to zero hour (substrate use), 8 hr [3] | other results
1 | OC[C@H]1O[C@H](OC[C@H]2O[C@H](OC[C@H]3O[C@H](O[C@]4(CO)O[C@H](CO)[C@@H](O)[C@@H]4O)[C@H](O)[C@@H](O)[C@@H]3O)[C@H](O)[C@@H](O)[C@H]2O)[C@H](O)[C@@H](O)[C@H]1O [Stachyose] | 8.51 | 8.20 | 7.94 | 8.00 | 3.45 | 3.67 | 3.90 | 9.13 | 4.47 | 8.51 | 3.55 | 6.99 | 1.42 | 1.76 | 1.96 | 2.07 | 4.65 | 5.10 | 3.71 | 3.40 | 590 nm absorbance normalized to zero hour (substrate use), 0 hr [1]: 1.00; Substrate use, 590 nm absorbance normalized to zero hour, 0 hr (Control (uninfected) NHBE cells, Biolog PMM2, 0 hr): 1.00; 590 nm absorbance normalized to zero hour (substrate use), 0 hr [2]: 1.00; 590 nm absorbance normalized to zero hour (substrate use), 1 hr [2]: 1.42; 590 nm absorbance normalized to zero hour (substrate use), 2 hr [2]: 1.76; 590 nm absorbance normalized to zero hour (substrate use), 3 hr [2]: 1.96; 590 nm absorbance normalized to zero hour (substrate use), 4 hr [2]: 2.07; 590 nm absorbance normalized to zero hour (substrate use), 5 hr [2]: 4.65; 590 nm absorbance normalized to zero hour (substrate use), 6 hr [2]: 5.10; 590 nm absorbance normalized to zero hour (substrate use), 7 hr [2]: 3.71; 590 nm absorbance normalized to zero hour (substrate use), 8 hr [2]: 3.40; 590 nm absorbance normalized to zero hour (substrate use), 9 hr [2]: 3.17; 590 nm absorbance normalized to zero hour (substrate use), 10 hr [2]: 2.89; 590 nm absorbance normalized to zero hour (substrate use), 11 hr [2]: 4.13; 590 nm absorbance normalized to zero hour (substrate use), 0 hr [3]: 1.00; 590 nm absorbance normalized to zero hour (substrate use), 9 hr [3]: 3.17; 590 nm absorbance normalized to zero hour (substrate use), 10 hr [3]: 2.89; 590 nm absorbance normalized to zero hour (substrate use), 11 hr [3]: 4.13
2 | C[C@H](O)[C@H](O)[C@@H](O)[C@@H](O)C=O [L-Rhamnose] | 1.28 | 1.52 | 1.49 | 1.66 | 2.53 | 2.01 | 2.71 | 2.22 | 2.36 | 1.28 | 2.12 | 1.91 | 0.16 | 0.22 | 0.25 | 0.28 | 0.32 | 0.34 | 0.36 | 0.38 | 590 nm absorbance normalized to zero hour (substrate use), 1 hr [4]: 0.16; 590 nm absorbance normalized to zero hour (substrate use), 2 hr [4]: 0.22; 590 nm absorbance normalized to zero hour (substrate use), 3 hr [4]: 0.25; 590 nm absorbance normalized to zero hour (substrate use), 4 hr [4]: 0.28; 590 nm absorbance normalized to zero hour (substrate use), 5 hr [4]: 0.32; 590 nm absorbance normalized to zero hour (substrate use), 6 hr [4]: 0.34; 590 nm absorbance normalized to zero hour (substrate use), 7 hr [4]: 0.36; 590 nm absorbance normalized to zero hour (substrate use), 8 hr [4]: 0.38; 590 nm absorbance normalized to zero hour (substrate use), 9 hr [4]: 0.41; 590 nm absorbance normalized to zero hour (substrate use), 10 hr [4]: 0.43; 590 nm absorbance normalized to zero hour (substrate use), 11 hr [4]: 0.46; 590 nm absorbance normalized to zero hour (substrate use), 9 hr [3]: 0.41; 590 nm absorbance normalized to zero hour (substrate use), 10 hr [3]: 0.43; 590 nm absorbance normalized to zero hour (substrate use), 11 hr [3]: 0.46
3 | O=C[C@H](O)[C@@H](O)[C@@H](O)CO [L-Arabinose] | 1.72 | 2.30 | 2.99 | 3.04 | 2.95 | 3.74 | 4.05 | 4.01 | 4.09 | 1.72 | 3.33 | 3.87 | 1.79 | 2.45 | 3.01 | 3.10 | 3.49 | 3.66 | 3.82 | 4.01 | 590 nm absorbance normalized to zero hour (substrate use), 1 hr [2]: 1.79; 590 nm absorbance normalized to zero hour (substrate use), 2 hr [2]: 2.45; 590 nm absorbance normalized to zero hour (substrate use), 3 hr [2]: 3.01; 590 nm absorbance normalized to zero hour (substrate use), 4 hr [2]: 3.10; 590 nm absorbance normalized to zero hour (substrate use), 5 hr [2]: 3.49; 590 nm absorbance normalized to zero hour (substrate use), 6 hr [2]: 3.66; 590 nm absorbance normalized to zero hour (substrate use), 7 hr [2]: 3.82; 590 nm absorbance normalized to zero hour (substrate use), 8 hr [2]: 4.01; 590 nm absorbance normalized to zero hour (substrate use), 9 hr [2]: 4.41; 590 nm absorbance normalized to zero hour (substrate use), 10 hr [2]: 4.50; 590 nm absorbance normalized to zero hour (substrate use), 11 hr [2]: 4.78; 590 nm absorbance normalized to zero hour (substrate use), 9 hr [3]: 4.41; 590 nm absorbance normalized to zero hour (substrate use), 10 hr [3]: 4.50; 590 nm absorbance normalized to zero hour (substrate use), 11 hr [3]: 4.78
